Experimental data published in ChEMBL document CHEMBL4619705, “Conjugation of peptides to short-acyl-chain ceramides for delivery across mucosal cell barriers” (Bioorg Med Chem Lett, 2020).

Assay: Drug transport in MDCK2 cells assessed as transcytosis across epithelial monolayers at 37 degree C measured after 3 hrs by transwell assay
Format: ADME, cell-based, Canis lupus familiaris
Conditions: dog, mdck-ii
In the case of `CCCCCCCCCCCCC/C=C\[C@@H](O)[C@H](/C=N\OCC(=O)NCCCC[C@@H](NC(=O)CNC(=O)[C@@H](CO)NC(=O)CNC(=O)[C@@H](CCCNC(=N)N)NC(=O)CNC(=O)[C@@H](Cc1ccc(O)cc1)NC(=O)CNC(=O)[C@@H](CO)NC(=O)CNC(=O)[C@@H](CCCCNC(=O)CCCC[C@@H]1SC[C@@H]2NC(=O)N[C@@H]21)NC(=O)[C@H](N)Cc1cn(CCCCCCNC(=O)c2ccc(-c3c4ccc(=N)c(S(=O)(=O)O)c-4oc4c(S(=O)(=O)O)c(N)ccc34)c(C(=O)O)c2)nn1)C(N)=O)NC(=O)CCCCC`, the Drug transport was 11.4%. In the case of `N=C(N)NCCC[C@@H](NC(=O)CNC(=O)[C@@H](Cc1ccc(O)cc1)NC(=O)CNC(=O)[C@@H](CO)NC(=O)CNC(=O)[C@@H](CCCCNC(=O)CCCC[C@@H]1SC[C@@H]2NC(=O)N[C@@H]21)NC(=O)[C@H](N)Cc1cn(CCCCCCNC(=O)c2ccc(-c3c4ccc(=N)c(S(=O)(=O)O)c-4oc4c(S(=O)(=O)O)c(N)ccc34)c(C(=O)O)c2)nn1)C(=O)NCC(=O)N[C@H](CO)C(=O)NCC(=O)N[C@H](CCCCNC(=O)CON)C(N)=O`, the Drug transport was 0.2%. `CCCCCCCCCCCCCC=CC=C(C=NOCC(=O)NCCCC[C@@H](NC(=O)CNC(=O)[C@@H](CO)NC(=O)CNC(=O)[C@@H](CCCNC(=N)N)NC(=O)CNC(=O)[C@@H](Cc1ccc(O)cc1)NC(=O)CNC(=O)[C@@H](CO)NC(=O)CNC(=O)[C@@H](CCCCNC(=O)CCCC[C@@H]1SC[C@@H]2NC(=O)N[C@@H]21)NC(=O)[C@H](N)Cc1cn(CCCCCCNC(=O)c2ccc(-c3c4ccc(=N)c(S(=O)(=O)O)c-4oc4c(S(=O)(=O)O)c(N)ccc34)c(C(=O)O)c2)nn1)C(N)=O)NC(=O)CCCCC` gave a Drug transport of 5.8%.
